Measurements reported in ChEMBL document CHEMBL3414492, “Enhancing the cellular anti-proliferation activity of pyridazinones as c-met inhibitors using docking analysis” (Eur J Med Chem, 2015).
The source made the active and inactive calls. No cut-off for these calls is given here.

How the values were obtained:
[1] = Inhibition of cell proliferation of human EBC1 cells after 72 hrs by SRB assay; conditions: EBC-1, 72 h
NCI-H358 [2] = assay: Inhibition of cell proliferation of human NCI-H358 cells after 72 hrs by SRB assay; format: functional, cell-based; conditions: NCI-H358, 72 h
MKN-45 [3] = assay: Selectivity index, ratio of IC50 for human PC3 cells to IC50 for human MKN45 cells; format: functional
[4] = molecular target: Tyrosine-protein kinase receptor UFO (Homo sapiens, UniProt P30530); assay: Inhibition of AXL (unknown origin)
[5] = molecular target: Fibroblast growth factor receptor 1 (Homo sapiens, UniProt P11362); assay: Inhibition of FGFR1 (unknown origin)
[6] = molecular target: T1, Hepatocyte growth factor receptor (Homo sapiens, UniProt P08581); assay: Inhibition of c-Met in human EBC1 cells assessed as reduction in ERK T202/Y204 phosphorylation at 11 nM to 100 nM incubated for 2 hrs by Western blot method; format: cell-based
[7] = molecular target: Tyrosine-protein kinase receptor TYRO3 (Homo sapiens, UniProt Q06418); assay: Inhibition of TYRO3 (unknown origin)
SNU-5 [8] = assay: Selectivity index, ratio of IC50 for human PC3 cells to IC50 for human SNU5 cells; format: functional
NCI-H358 [9] = assay: Selectivity index, ratio of IC50 for human NCI-H358 cells to IC50 for human MKN45 cells; format: functional
[10] = Inhibition of cell proliferation of human PC3 cells after 72 hrs by SRB assay; format: functional, cell-based; conditions: PC-3, 72 h
A549 [11] = assay: Inhibition of cell proliferation of human A549 cells after 72 hrs by SRB assay; format: functional, cell-based; conditions: A549, 72 h
NCI-H661 = assay: Inhibition of cell proliferation of human NCI-H661 cells after 72 hrs by SRB assay; conditions: NCI-H661, 72 h
[12] = molecular target: Vascular endothelial growth factor receptor 1 (Homo sapiens, UniProt P17948); assay: Inhibition of FLT1 (unknown origin)
[13] = molecular target: T1, Hepatocyte growth factor receptor; assay: Inhibition of c-Met Y1234/1235 phosphorylation in human EBC1 cells at 0.1 uM incubated for 2 hrs by Western blot method; format: cell-based
[14] = Selectivity index, ratio of IC50 for human NCI-H661 cells to IC50 for human EBC1 cells; format: functional
[15] = molecular target: T1, Hepatocyte growth factor receptor; assay: Inhibition of c-Met in human EBC1 cells assessed as reduction in Akt S473 phosphorylation at 11 nM to 100 nM incubated for 2 hrs by Western blot method; format: cell-based
[16] = Inhibition of cell proliferation of human MKN45 cells after 72 hrs by SRB assay; conditions: MKN-45, 72 h
[17] = Selectivity index, ratio of IC50 for human NCI-H520 cells to IC50 for human EBC1 cells; format: functional
SNU-16 [18] = assay: Selectivity index, ratio of IC50 for human SNU16 cells to IC50 for human MKN45 cells; format: functional
NCI-H460 [19] = assay: Inhibition of cell proliferation of human NCI-H460 cells after 72 hrs by SRB assay; format: functional, cell-based; conditions: NCI-H460, 72 h
SNU-16 [20] = assay: Selectivity index, ratio of IC50 for human SNU16 cells to IC50 for human SNU5 cells; format: functional
[21] = molecular target: T1, Hepatocyte growth factor receptor; assay: Inhibition of c-Met Y1234/1235 phosphorylation in human EBC1 cells at 11 nM to 100 nM incubated for 2 hrs by Western blot method; format: cell-based
[22] = molecular target: Platelet-derived growth factor receptor beta (Homo sapiens, UniProt P09619); assay: Inhibition of PDGFRbeta (unknown origin)
[23] = molecular target: Receptor tyrosine-protein kinase erbB-4 (Homo sapiens, UniProt Q15303); assay: Inhibition of ERBB4 (unknown origin)
SNU-5 [24] = assay: Selectivity index, ratio of IC50 for human NCI-H661 cells to IC50 for human SNU5 cells; format: functional
A549 [25] = assay: Selectivity index, ratio of IC50 for human A549 cells to IC50 for human MKN45 cells; format: functional
A549 [26] = assay: Selectivity index, ratio of IC50 for human A549 cells to IC50 for human SNU5 cells; format: functional
NCI-H460 [27] = assay: Selectivity index, ratio of IC50 for human NCI-H460 cells to IC50 for human MKN45 cells; format: functional
NCI-H520 = assay: Inhibition of cell proliferation of human NCI-H520 cells after 72 hrs by SRB assay; format: functional, cell-based; conditions: NCI-H520, 72 h
[28] = molecular target: ALK tyrosine kinase receptor (Homo sapiens, UniProt Q9UM73); assay: Inhibition of ALK (unknown origin)
[29] = molecular target: T1, Hepatocyte growth factor receptor; assay: Inhibition of recombinant c-Met (unknown origin) using poly (Glu,Tyr)4:1 substrate incubated for 60 mins by ELISA method
[30] = molecular target: Epidermal growth factor receptor (Homo sapiens, UniProt P00533, L858R/T790M); assay: Inhibition of EGFR T790M/L858R mutant (unknown origin); format: protein assay
[31] = Inhibition of cell proliferation of human SNU16 cells after 72 hrs by SRB assay; format: functional, cell-based; conditions: SNU-16, 72 h
[32] = molecular target: Macrophage-stimulating protein receptor (Homo sapiens, UniProt Q04912); assay: Inhibition of RON (unknown origin)
SNU-5 [33] = assay: Selectivity index, ratio of IC50 for human NCI-H520 cells to IC50 for human SNU5 cells; format: functional
MKN-45 [34] = assay: Selectivity index, ratio of IC50 for human NCI-H520 cells to IC50 for human MKN45 cells; format: functional
MKN-45 [35] = assay: Selectivity index, ratio of IC50 for human NCI-H661 cells to IC50 for human MKN45 cells; format: functional
[36] = molecular target: Insulin-like growth factor 1 receptor (Homo sapiens, UniProt P08069); assay: Inhibition of IGF1R (unknown origin)
[37] = Selectivity index, ratio of IC50 for human PC3 cells to IC50 for human EBC1 cells; format: functional
SNU-16 [38] = assay: Selectivity index, ratio of IC50 for human SNU16 cells to IC50 for human EBC1 cells; format: functional
NCI-H460 [39] = assay: Selectivity index, ratio of IC50 for human NCI-H460 cells to IC50 for human SNU5 cells; format: functional
[40] = molecular target: Epidermal growth factor receptor (Homo sapiens, UniProt P00533); assay: Inhibition of EGFR (unknown origin)
[41] = Inhibition of cell proliferation of human SNU5 cells after 72 hrs by SRB assay; conditions: SNU-5, 72 h
Ephrin type-A receptor 2 = Ephrin type-A receptor 2 (Homo sapiens, UniProt P29317); assay: Inhibition of EPHA2 (unknown origin)
NCI-H460 [42] = assay: Selectivity index, ratio of IC50 for human NCI-H460 cells to IC50 for human EBC1 cells; format: functional
NCI-H358 [43] = assay: Selectivity index, ratio of IC50 for human NCI-H358 cells to IC50 for human SNU5 cells; format: functional
A549 [44] = assay: Selectivity index, ratio of IC50 for human A549 cells to IC50 for human EBC1 cells; format: functional
NCI-H358 [45] = assay: Selectivity index, ratio of IC50 for human NCI-H358 cells to IC50 for human EBC1 cells; format: functional
EBC-1 = assay: Inhibition of cell proliferation of human EBC1 cells at 10 uM after 72 hrs by SRB assay; format: functional

Compound: CN1CCN(CCCCOC(=O)Nc2cccc(Cn3nc(-n4ccc5ccc(F)cc54)ccc3=O)c2)CC1
- IC50 [1]: ≤ 0.1 µM

Compound: O=C(Nc1cccc(Cn2nc(-n3ccc4ccc(F)cc43)ccc2=O)c1)OCCCCN1CCOCC1
- IC50 [1]: ≤ 1 µM

Compound: O=c1ccc(-n2ccc3ccc(F)cc32)nn1CCOc1ccnc2cc(OCCCN3CCOCC3)ccc12
- IC50 (NCI-H358 [2]): > 10 µM
- Ratio IC50 (MKN-45 [3]): > 100
- IC50 [4]: > 1 µM
- IC50 [5]: > 1 µM
- inhibition [6]: Active
- IC50 [7]: > 1 µM
- Ratio IC50 (SNU-5 [8]): > 100
- Ratio IC50 (NCI-H358 [9]): 100
- IC50 [10]: > 10 µM
- IC50 (A549 [11]): > 10 µM
- IC50 (NCI-H661): > 10000 µM
- IC50 [12]: > 1 µM
- inhibition [13]: Active
- Ratio IC50 [14]: 100
- inhibition [15]: Active
- IC50 [16]: 60.7 µM
- Ratio IC50 [17]: 100
- Ratio IC50 (SNU-16 [18]): > 100
- IC50 (NCI-H460 [19]): > 10 µM
- Ratio IC50 (SNU-16 [20]): > 100
- inhibition [21]: Dose-dependent effect
- IC50 [22]: > 1 µM
- IC50 [23]: > 1 µM
- Ratio IC50 (SNU-5 [24]): 100
- Ratio IC50 (A549 [25]): 100
- Ratio IC50 (A549 [26]): 100
- Ratio IC50 (NCI-H460 [27]): 100
- IC50 (NCI-H520): > 10 µM
- IC50 [28]: > 1 µM
- IC50 [29]: 0.0042 µM
- IC50 [1]: 0.0172 µM
- IC50 [30]: > 1 µM
- IC50 [31]: > 10 µM
- IC50 [32]: > 1 µM
- Ratio IC50 (SNU-5 [33]): 100
- Ratio IC50 (MKN-45 [34]): 100
- Ratio IC50 (MKN-45 [35]): 100
- IC50 [36]: > 1 µM
- Ratio IC50 [37]: 100
- Ratio IC50 (SNU-16 [38]): > 100
- Ratio IC50 (NCI-H460 [39]): 100
- IC50 [40]: > 1 µM
- IC50 [41]: 88.1 µM
- IC50 (Ephrin type-A receptor 2): > 1 µM
- Ratio IC50 (NCI-H460 [42]): 100
- Ratio IC50 (NCI-H358 [43]): 100
- Ratio IC50 (A549 [44]): 100
- Ratio IC50 (NCI-H358 [45]): 100

Compound: Cc1ccccc1Nc1ccc(=O)n(Cc2cccc(NC(=O)OCCCCN(C)C)c2)n1
- inhibition (EBC-1): inactive

Compound: O=c1ccc(-n2ccc3ccc(F)cc32)nn1Cc1cccc(-c2ncc(OCCN3CCOCC3)cn2)c1
- IC50 [1]: 0.124 µM

Compound: CN(C)CCCCOC(=O)Nc1cccc(Cn2nc(Nc3cccc(F)c3)ccc2=O)c1
- inhibition (EBC-1): inactive

Compound: CN(C)CCCCCOC(=O)Nc1cccc(Cn2nc(-n3ccc4ccc(F)cc43)ccc2=O)c1
- IC50 [1]: ≤ 0.1 µM

Compound: CN(C)CCCOC(=O)Nc1cccc(Cn2nc(-n3ccc4ccc(F)cc43)ccc2=O)c1
- IC50 [1]: ≤ 1 µM

Compound: CN(C)CCOCCOC(=O)Nc1cccc(Cn2nc(-n3ccc4ccc(F)cc43)ccc2=O)c1
- IC50 [1]: ≤ 1 µM

Compound: O=C(Nc1cccc(Cn2nc(-n3ccc4ccc(F)cc43)ccc2=O)c1)OCCCCn1cccn1
- IC50 [1]: ≤ 1 µM

Compound: CN(C)CCCCOC(=O)Nc1cccc(Cn2nc(Nc3ccccc3F)ccc2=O)c1
- inhibition (EBC-1): inactive

Compound: COC(=O)CCCCOC(=O)Nc1cccc(Cn2nc(-n3ccc4ccc(F)cc43)ccc2=O)c1
- IC50 [1]: > 10 µM

Compound: CN(C)CCCCOC(=O)Nc1cccc(Cn2nc(Nc3ccccc3)ccc2=O)c1
- inhibition (EBC-1): inactive
- IC50 [1]: > 10 µM

Compound: CCOC(=O)Nc1cccc(Cn2nc(-n3ccc4ccc(F)cc43)ccc2=O)c1
- IC50 [29]: > 10 µM

Compound: CN1CCN(CCOc2cnc(-c3cccc(Cn4nc(-n5ccc6ccc(F)cc65)ccc4=O)c3)nc2)CC1
- IC50 [1]: 0.13 µM

Compound: CN(C)CCCCOC(=O)Nc1cccc(Cn2nc(Nc3cccc(C(F)(F)F)c3)ccc2=O)c1
- inhibition (EBC-1): inactive

Compound: COCCOc1ccc2c(OCCn3nc(-n4ccc5ccc(F)cc54)ccc3=O)ccnc2c1
- IC50 [1]: 0.0211 µM
